Data taken from EP0184471A1, “Product containing an antiprogestomimetic and a uterotonic substance” (ROUSSEL-UCLAF, priority 1984, dated 1986).
Marks after values point to notes of the source that are not given here.

Test system: grossesse apparemment normale et une aménorhée de 49 jours au plus
Assay: Clinical study of termination of early pregnancy: oral RU 486 alone or with an intramuscular sulprostone injection
Format: in vivo, jeunes femmes
Experimental: L'étude a porté sur 33 jeunes femmes en bonne santé présentant une grossesse apparemment normale et une aménorhée de 49 jours au plus.
Le composé RU 486 a été administré oralement à différentes doses : • 1) 25 mg 2 fois par jour pendant 4 jours. • 2) 25 mg 4 fois par jour pendant 4 jours.
Chez 16 patientes une injection intramusculaire de 0,25 mg de la méthylsulfonylamide de la 16-phénoxytétranor PG E2 (sulprostone) a été administrée le matin du dernier jour de traitement par le RU 486. Les sujets ont jeuné au moins une heure avant jusqu'à une heure après la prise du produit.
Les résultats obtenus sont rapportés dans le tableau I ci-après.

[1] = number of patients, RU 486 25 mg orally 2 times per day for 4 days (25 x 2), n=11 group A, n=9 group B
[2] = number of patients, RU 486 25 mg orally 4 times per day for 4 days (25 x 4), n=6 group A, n=7 group B
[3] = number of patients, Total of both RU 486 doses, n=17 group A, n=16 group B
[4] = percent of patients, Total of both RU 486 doses, n=17 group A

Compound: CC#C[C@]1(O)CC[C@H]2[C@@H]3CCC4=CC(=O)CCC4=C3[C@@H](c3ccc(N(C)C)cc3)C[C@@]21C [RU 486, 11β-(4-diméthylaminophényl) 170 - hydroxy 17α-(prop-l-ynyl) estra 4,9 - dièn 3 - one]
- Avortements complets [1]: 8
- Avortements incomplets [1]: 1
- Poursuite de la grossesse (number of patients, RU 486 25 mg orally 2 times per day for 4 days (25 x 2), n=11 group A, n=9 group B, group A value includes one extra-uterine pregnancy): 2*
- Avortements complets [2]: 5
- Avortements incomplets [2]: 0
- Poursuite de la grossesse [2]: 1
- Avortements complets [3]: 13
- Avortements incomplets [3]: 1
- Poursuite de la grossesse [3]: 3
- Avortements incomplets [4]: 5,9%
- Poursuite de la grossesse [4]: 17,6%
- Avortements complets (percent of patients, Total of both RU 486 doses, n=17 group A, n=16 group B): 76,5%
